Test results: patent publication US8735620B2, “Processes for preparing (E)-styrylbenzylsulfone compounds and uses thereof for treating proliferative disorders” (priority 2008, dated 2014)
pIC50: −log10 of the molar value.

Tests used:
MOLT-4 = assay: Tumor cell killing, MOLT-4; assay type: cell-based, human; settings: MOLT-4, T-lymphoblastic: ALL; read-out: Tumor cell killing (IC50) concentration
SW480 = assay: Tumor cell killing, SW480; assay type: cell-based, human; settings: SW480, COLO-RECTAL; read-out: Tumor cell killing (IC50) concentration
Protocol: (§1) Tissue Culture and Reagents: Paclitaxel was purchased from Sigma. Cell lines were purchased from ATCC. Cell lines were routinely grown in DMEM or RPM1 (CellGro) supplemented with 10% fetal bovine serum (Atlas) and 1 unit/mL penicillin-streptomycin (Gibco).
(§2) A number of tumor cell lines were tested using a dose response end point assay system. The cells were grown in either DMEM or RPMI supplemented with 10% fetal bovine serum and 1 unit/mL Penicillin-Streptomycin solution. The tumor cells were plated into 6 well dishes at a cell density of 1.0×10^5 cells/mL/well and compounds were added 24 h later at various concentrations. Cell counts were determined from duplicate wells after 96 h of treatment. The total number of viable cells was determined by trypan blue exclusion.

2008/17/4 = assay: Tumor cell killing, 2008/17/4; assay type: cell-based, human; settings: *2008/17/4, Resistant Ovarian (multi-drug resistant); read-out: Tumor cell killing (IC50) concentration
Protocol: as §1, §2

HCT-116 = assay: Tumor cell killing, HCT-116; assay type: cell-based, human; settings: HCT-116, COLO-RECTAL; read-out: Tumor cell killing (IC50) concentration
Protocol: as §1, §2

[1] = system: mantle cell lymphoma cell lines; settings: Park et al Oncogene 2007; cited from earlier work
A549 = assay: Tumor cell killing, A549; assay type: cell-based, human; settings: A549, NSCLC; read-out: Tumor cell killing (IC50) concentration
Daudi = assay: Tumor cell killing, Daudi; assay type: cell-based, human; settings: Burkitt's Lymphoma (B-cell), read-out: Tumor cell killing (IC50) concentration
2008 = assay: Tumor cell killing, 2008; assay type: cell-based, human; settings: 2008, Ovarian; read-out: Tumor cell killing (IC50) concentration
Protocol: as §1, §2

HUVEC = assay: PARP cleavage western blot, normal cells; assay type: cell-based, human; settings: HUVEC, 24, 48 and 72 h
Protocol: (§3) FIG. 2 Preferential tumor cell killing activity of 6aa. A. Cell Cycle analyses. Normal (HUVEC) and tumor cells (DU145) were treated with 20 nM concentration of 6aa and incubated in medium containing 10% fetal bovine serum. At 24 hr intervals, the cells were fixed, stained with propidium iodide and analyzed for their DNA content by flow Cytometry. B. Induction of apoptosis in normal (HUVEC) and tumor cells (DU145) was assessed by western blot analysis of cell lysates treated with 6aa for 24, 48 and 72 h. The Western blots were probed with anti-PARP antibodies to assess the cleavage of the protein.
(§4) […] were plated at a density of 3.0×10^6 cells per 150 mm^2 plate and treated 24 h later with either DMSO or 6aa. The cells were collected at the indicated time points and cell pellets were frozen. The frozen cell pellets were lysed in 1% NP40/PBS lysis buffer containing protease inhibitors. Equal amounts of total cellular protein was then resolved on a 10%-SDS-polyacrylamide gel. The gels were transferred onto nitrocellulose paper (S/S), hybridized with anti-PARP antibodies (BD) and developed using ECL (Perkin-Elmer, MA) solution.

BT20 = assay: Soft agar colony formation, BT20; assay type: cell-based, human; settings: BT20, dose dependent
DU145 [2] = assay: Soft agar colony formation, DU145; assay type: cell-based, human; settings: DU145, dose dependent
DU145 [3] = assay: PARP cleavage western blot, tumor cells; assay type: cell-based, human; settings: tumor cells (DU145), 24, 48 and 72 h
Protocol: as §3, §4

K562 = assay: Tumor cell killing, K562; assay type: cell-based, human; settings: K562, CML; read-out: Tumor cell killing (IC50) concentration
Protocol: as §1, §2

T47D = assay: Tumor cell killing, T47D; assay type: cell-based, human; settings: BREAST (ER+), read-out: Tumor cell killing (IC50) concentration
[4] = system: BT20 human breast carcinoma xenograft; assay: Nude mouse xenograft assay
Protocol: Female athymic (NCr-nu/nu) mice were injected subcutaneously with 0.5-1×10^7 ER-negative human breast tumor cells (BT-20) in 0.2 mL of PBS and the tumors allowed to grow to a size of 100-150 mm^3 in size in about 14 days. The mice were then paired such that the pairs harbored equal sized tumors, which were then used to test the therapeutic effects of 6s and 6ab. A Of the pairs, the animals were treated with either 50 mg/kg 6s following a Q4D schedule or 25 mg/kg using a Q2D schedule or vehicle (DMSO) control. The tumor size was then measured on alternate days in two dimensions and the volume determined using either of the following equations: 1: V=(L×(S^2))π/6); where L is the longer and S is the shorter of the two measurements. B. 6ab was dissolved in PBS and was administered intravenously (50 mg/kg) through the tail vein on every alternate day. Tumor measurements were done as in materials and methods.
Female athymic (NCR-nu/nu, Taconic) nude mice were injected with 0.5-1.0×10^7 BT20 cells subcutaneously in the hind leg using a 1 mL tuberculin syringe equipped with a 271/2 gauge needle. Approximately 14 days later, mice were paired (N=8) and injected with 6ab or Phosphate buffered saline as the vehicle control. The intravenous injections were performed in the mouse tail vein using a 1 mL tuberculin syringe equipped with a 30 gauge needle. The animals were injected following a Q2D×3 schedule. Tumor measurements (two dimensions) were done three times per week using traceable digital vernier calipers (Fisher).

SMILES | pIC50 (MOLT-4) | pIC50 (SW480) | pIC50 (2008/17/4) | pIC50 (HCT-116) | effect on mantle cell lymphoma cell lines [1] | pIC50 (A549) | pIC50 (Daudi) | pIC50 2008 | PARP cleavage (HUVEC) | growth of tumor cells in soft agar (BT20) | growth of tumor cells in soft agar (DU145 [2]) | apoptosis as judged by PARP cleavage (DU145 [3]) | pIC50 (K562) | pIC50 (T47D) | fold increase in tumor volume ([4]; 25 mg/kg Q2D, IP, 22 day period, vehicle 5 fold) | final tumor volume ([4]; 25 mg/kg Q2D, IP, after 22 days, from 67.5 mm^3) | tolerability by body weights and physical observations ([4]; 50 mg/kg Q4D or 25 mg/kg Q2D, IP) | fold increase in average tumor volume ([4]; 50 mg/kg Q4D, IP, 22 day period, vehicle 5 fold) | final average tumor volume ([4]; 50 mg/kg Q4D, IP, after 22 days, from 74 mm^3) | tumor volume response of the majority of the mice ([4]; 8 mice per group)
COc1cc(OC)c(/C=C/S(=O)(=O)Cc2ccc(OC)c(O)c2)c(OC)c1 [6aa, (E)-2,4,6-Trimethoxystyryl-3-Hydroxy-4-Methoxybenzyl Sulfone] | 8.30 | 8.15 | 8.40 | 8.05 | altered the growth and cell cycle status | 8.00 | 8.15 | 8.30 | No PARP cleavage was observed | complete inhibition of the growth of tumor cells | complete inhibition of the growth of tumor cells | activation of apoptotic pathways | 8.40 | 8.22 |  |  |  |  |  | 
COc1ccc(CS(=O)(=O)/C=C/c2c(OC)cc(OC)cc2OC)cc1 [6s, (E)-2,4,6-Trimethoxystyryl-4-Methoxybenzyl sulfone] | 8.05 |  |  |  | altered the growth and cell cycle status | 7.70 | 8.10 |  |  |  |  |  |  | 7.60 | 2.5 fold | 165 mm^3 | well tolerated | 2.9 fold | 217 mm^3 | growth arrest or a gradual reduction in their tumor volume
